{"source": "patent US12004868B2", "about": "“Liposomal mitigation of drug-induced inhibition of the cardiac IKr channel” (Signpath Pharma, Inc., priority 2011, dated 2024)", "key": {"[1]": {"details": "cited from earlier work; for incidence of QT prolongation: patients, Aloxi at doses above 2.25 mg, sotalol 1288 patients, vandetanib grade 3/4"}, "[2]": {"tested_on": "calcium channel", "details": "literature; read-out: calcium channel blocking EC50; cited from earlier work"}, "[3]": {"details": "cited from earlier work; for Cmax: read-out: steady state Cmax"}, "[4]": {"tested_on": "CaV", "details": "literature; read-out: CaV IC50 (Doherty et al); cited from earlier work"}, "[5]": {"tested_on": "in vitro rabbit hearts", "assay": "Left ventricular pressure in in vitro rabbit hearts"}, "[6]": {"details": "crizotinib intravenously; nilotinib orally up to 600 mg/kg; cited from earlier work"}, "[7]": {"tested_on": "in vitro rabbit heart", "assay": "In vitro rabbit heart QTc intervals", "set-up": "dose or concentration left out as unconfirmed", "details": "liposomes 9:1"}, "[8]": {"target": "NaV1.5 (Homo sapiens, UniProt Q14524)", "sequence (Q14524 whole entry)": "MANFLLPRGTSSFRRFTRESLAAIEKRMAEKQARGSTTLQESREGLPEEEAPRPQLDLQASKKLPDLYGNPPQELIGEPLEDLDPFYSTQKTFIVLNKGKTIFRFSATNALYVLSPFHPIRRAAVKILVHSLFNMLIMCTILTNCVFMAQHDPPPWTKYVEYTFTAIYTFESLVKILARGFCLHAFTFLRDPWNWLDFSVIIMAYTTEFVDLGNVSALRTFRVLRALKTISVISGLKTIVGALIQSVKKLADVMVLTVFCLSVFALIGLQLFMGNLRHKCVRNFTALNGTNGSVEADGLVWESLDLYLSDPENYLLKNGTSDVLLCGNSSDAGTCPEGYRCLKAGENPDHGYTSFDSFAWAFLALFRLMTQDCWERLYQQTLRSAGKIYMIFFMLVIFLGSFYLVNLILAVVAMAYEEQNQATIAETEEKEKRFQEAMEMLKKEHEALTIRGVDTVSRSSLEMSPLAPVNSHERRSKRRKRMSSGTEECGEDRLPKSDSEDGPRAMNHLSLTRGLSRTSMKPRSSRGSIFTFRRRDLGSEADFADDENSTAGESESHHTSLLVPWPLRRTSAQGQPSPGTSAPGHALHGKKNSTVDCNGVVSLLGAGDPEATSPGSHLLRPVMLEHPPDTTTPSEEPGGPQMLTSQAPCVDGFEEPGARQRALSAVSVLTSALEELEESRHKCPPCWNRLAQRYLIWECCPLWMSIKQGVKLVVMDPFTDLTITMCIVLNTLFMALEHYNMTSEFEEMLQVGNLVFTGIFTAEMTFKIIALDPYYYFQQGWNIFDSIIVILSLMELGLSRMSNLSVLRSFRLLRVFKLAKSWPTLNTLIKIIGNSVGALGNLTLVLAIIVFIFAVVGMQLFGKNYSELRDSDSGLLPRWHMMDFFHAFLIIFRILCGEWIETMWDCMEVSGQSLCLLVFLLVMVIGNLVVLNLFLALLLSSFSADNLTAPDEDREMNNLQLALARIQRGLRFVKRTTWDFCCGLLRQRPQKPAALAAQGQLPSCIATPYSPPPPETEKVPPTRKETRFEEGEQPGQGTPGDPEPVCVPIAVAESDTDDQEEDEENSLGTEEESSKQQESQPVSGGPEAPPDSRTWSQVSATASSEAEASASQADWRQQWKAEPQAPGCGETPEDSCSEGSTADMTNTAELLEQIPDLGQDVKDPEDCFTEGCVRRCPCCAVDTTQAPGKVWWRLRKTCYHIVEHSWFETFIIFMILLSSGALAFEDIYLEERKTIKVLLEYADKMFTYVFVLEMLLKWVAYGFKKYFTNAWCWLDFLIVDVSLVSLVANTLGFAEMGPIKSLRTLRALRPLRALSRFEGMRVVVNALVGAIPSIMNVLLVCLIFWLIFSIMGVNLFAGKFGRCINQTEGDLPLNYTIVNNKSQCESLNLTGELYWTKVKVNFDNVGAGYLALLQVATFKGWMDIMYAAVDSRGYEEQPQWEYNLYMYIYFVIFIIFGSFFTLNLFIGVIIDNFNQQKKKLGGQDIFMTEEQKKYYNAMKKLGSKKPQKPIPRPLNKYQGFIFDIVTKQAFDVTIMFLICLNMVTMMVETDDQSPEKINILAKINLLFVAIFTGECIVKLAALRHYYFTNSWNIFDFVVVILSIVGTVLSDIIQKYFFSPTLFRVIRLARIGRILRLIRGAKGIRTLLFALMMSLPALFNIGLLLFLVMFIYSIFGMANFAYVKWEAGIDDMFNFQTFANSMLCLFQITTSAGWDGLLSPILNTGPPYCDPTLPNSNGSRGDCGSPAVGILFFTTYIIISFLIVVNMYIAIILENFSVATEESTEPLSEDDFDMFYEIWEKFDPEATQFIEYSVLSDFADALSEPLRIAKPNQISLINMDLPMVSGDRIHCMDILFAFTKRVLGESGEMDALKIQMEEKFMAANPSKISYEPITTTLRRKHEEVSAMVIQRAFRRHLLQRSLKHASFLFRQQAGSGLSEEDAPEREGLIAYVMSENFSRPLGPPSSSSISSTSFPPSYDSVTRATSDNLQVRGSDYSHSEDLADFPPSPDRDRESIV", "details": "literature; read-out: NaV1.5 IC50 (Doherty et al); cited from earlier work"}, "[9]": {"tested_on": "rabbit heart"}, "[10]": {"details": "cited from earlier work"}, "[11]": {"target": "IKs (Homo sapiens, UniProt P51787)", "sequence (P51787 whole entry)": "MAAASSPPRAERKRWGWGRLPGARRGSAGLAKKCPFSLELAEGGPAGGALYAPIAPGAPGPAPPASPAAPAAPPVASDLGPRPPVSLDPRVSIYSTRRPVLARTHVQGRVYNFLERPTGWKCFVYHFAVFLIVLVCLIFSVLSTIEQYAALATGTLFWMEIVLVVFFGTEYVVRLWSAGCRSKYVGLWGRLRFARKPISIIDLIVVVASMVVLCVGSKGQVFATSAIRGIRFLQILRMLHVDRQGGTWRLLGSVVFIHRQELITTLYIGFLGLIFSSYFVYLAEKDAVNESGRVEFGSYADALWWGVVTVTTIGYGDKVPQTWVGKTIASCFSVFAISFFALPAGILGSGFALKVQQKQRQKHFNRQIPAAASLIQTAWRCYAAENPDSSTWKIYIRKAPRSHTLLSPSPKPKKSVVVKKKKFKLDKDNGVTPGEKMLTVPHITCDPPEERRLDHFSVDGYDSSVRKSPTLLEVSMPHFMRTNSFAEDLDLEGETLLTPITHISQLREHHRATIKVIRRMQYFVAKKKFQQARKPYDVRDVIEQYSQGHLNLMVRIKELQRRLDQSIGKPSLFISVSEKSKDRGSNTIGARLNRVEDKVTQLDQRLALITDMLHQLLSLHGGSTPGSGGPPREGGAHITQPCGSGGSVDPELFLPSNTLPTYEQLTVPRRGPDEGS", "details": "literature; cited from earlier work"}, "[12]": {"target": "hERG (Homo sapiens, UniProt Q12809)", "sequence (Q12809 whole entry)": "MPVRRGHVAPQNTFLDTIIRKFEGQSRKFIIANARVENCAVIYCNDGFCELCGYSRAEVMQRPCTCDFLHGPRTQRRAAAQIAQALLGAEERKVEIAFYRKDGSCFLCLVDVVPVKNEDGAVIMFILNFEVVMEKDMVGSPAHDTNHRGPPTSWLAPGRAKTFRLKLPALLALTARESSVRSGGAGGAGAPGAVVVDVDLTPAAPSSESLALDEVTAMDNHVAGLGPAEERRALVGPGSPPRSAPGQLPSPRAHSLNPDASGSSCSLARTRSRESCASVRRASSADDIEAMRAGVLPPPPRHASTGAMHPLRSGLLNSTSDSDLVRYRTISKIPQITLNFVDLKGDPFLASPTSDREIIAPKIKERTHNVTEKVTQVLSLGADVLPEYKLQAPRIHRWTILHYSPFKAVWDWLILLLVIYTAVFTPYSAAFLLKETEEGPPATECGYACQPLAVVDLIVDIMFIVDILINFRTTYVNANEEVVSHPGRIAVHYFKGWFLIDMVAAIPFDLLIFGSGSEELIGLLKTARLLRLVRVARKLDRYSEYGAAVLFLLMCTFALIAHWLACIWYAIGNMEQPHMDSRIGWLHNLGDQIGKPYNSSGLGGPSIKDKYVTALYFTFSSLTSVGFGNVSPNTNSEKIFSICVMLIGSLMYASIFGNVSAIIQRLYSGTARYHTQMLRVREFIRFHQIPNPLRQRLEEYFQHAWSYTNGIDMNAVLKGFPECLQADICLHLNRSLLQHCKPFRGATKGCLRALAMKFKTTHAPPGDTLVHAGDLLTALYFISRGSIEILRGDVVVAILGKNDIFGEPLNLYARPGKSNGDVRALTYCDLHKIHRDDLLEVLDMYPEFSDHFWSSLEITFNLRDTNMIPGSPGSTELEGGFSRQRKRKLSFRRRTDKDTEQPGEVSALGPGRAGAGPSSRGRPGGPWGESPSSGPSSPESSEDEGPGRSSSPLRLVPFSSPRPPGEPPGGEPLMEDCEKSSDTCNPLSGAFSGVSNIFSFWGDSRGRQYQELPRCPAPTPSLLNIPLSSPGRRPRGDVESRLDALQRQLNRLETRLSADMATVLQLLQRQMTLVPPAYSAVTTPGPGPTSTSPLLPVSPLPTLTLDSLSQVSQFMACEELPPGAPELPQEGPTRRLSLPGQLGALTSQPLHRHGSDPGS", "details": "cited from earlier work"}, "[13]": {"tested_on": "isolated rabbit Purkinje fibers", "details": "5 μM; cited from earlier work"}, "[14]": {"tested_on": "in vitro rabbit heart"}, "[15]": {"tested_on": "rabbit heart", "remark": "listed apart in the source"}, "[16]": {"details": "cited from earlier work", "remark": "listed apart in the source"}, "[17]": {"details": "cancer patients given 500 mg BID"}, "[18]": {"details": "children with cancer, 280 mg/m^2 BID"}, "[19]": {"details": "crizotinib 2 mg/kg, vs baseline"}, "[20]": {"details": "crizotinib 3 mg/kg, vs baseline"}, "[21]": {"details": "read-out: hERG IC50, literature"}, "[22]": {"details": "Chinese patients given 400 mg BID"}, "[23]": {"details": "cancer patients given 400 mg BID"}}, "note": "Structures can show the parent of a compound that is named as a salt. Where two headings read alike, the source gives them in different places. Marks after values point to notes of the source that are not given here.", "data": [{"compound": "O=C1c2cccc3c2[C@H](CCC3)CN1[C@@H]1CN2CCC1CC2", "note": "[Aloxi, palonasitron HCL]", "values": [{"measurement": "incidence of EKG adverse events", "setting": "[1]; doses above 2.25 mg", "result": "> 2", "unit": "%"}, {"measurement": "incidence of bradycardia", "setting": "[1]; doses above 2.25 mg", "result": 4, "unit": "%"}, {"measurement": "incidence of QT prolongation", "setting": "[1]", "result": 5, "unit": "%"}]}, {"compound": "CC(C)COCC(CN(Cc1ccccc1)c1ccccc1)N1CCCC1", "note": "(centres unmarked) [Bepridil]", "values": [{"measurement": "EC50", "setting": "[2]", "result": 10, "unit": "µM"}]}, {"compound": "C[C@@H](Oc1cc(-c2cnn(C3CCNCC3)c2)cnc1N)c1c(Cl)ccc(F)c1Cl", "note": "[Crizotinib]", "values": [{"measurement": "steady state Cmax", "setting": "[3]; [17]", "result": 650, "unit": "ng/mL"}, {"measurement": "Cmax", "setting": "[3]; [17]", "result": 1500, "unit": "nM"}, {"measurement": "steady state Cmax", "setting": "[3]; [18]", "result": 630, "unit": "ng/mL"}, {"measurement": "Cmax", "setting": "[3]; [18]", "result": 1400, "unit": "nM"}, {"measurement": "IC50", "setting": "[4]", "result": 3.1, "unit": "µM"}, {"measurement": "effect on LVP (in words)", "setting": "[5]", "result": "decrease in LVP"}, {"measurement": "ECG effect in dogs (in words)", "setting": "[6]", "result": "increased PR-, QRS- and QT-intervals"}, {"measurement": "effect on the QTc interval of in vitro rabbit hearts (in words)", "setting": "[7]", "result": "dose dependent prolongation of the QTc interval"}, {"measurement": "IC50", "setting": "[8]", "result": 3.5, "unit": "µM"}, {"measurement": "QRS Intervals", "setting": "[9]; crizotinib 1 mg/kg IV", "result": 48, "unit": "ms"}, {"measurement": "QT Intervals", "setting": "[9]; crizotinib 1 mg/kg IV", "result": "189* ms"}, {"measurement": "QTc interval (Van der Water)", "setting": "[9]; crizotinib 1 mg/kg IV", "result": "251* ms"}, {"measurement": "QRS Intervals", "setting": "[9]; crizotinib 2 mg/kg IV", "result": "53* ms"}, {"measurement": "QT Intervals", "setting": "[9]; crizotinib 2 mg/kg IV", "result": "205* ms"}, {"measurement": "QTc interval (Van der Water)", "setting": "[9]; crizotinib 2 mg/kg IV", "result": "264* ms"}, {"measurement": "RR Intervals", "setting": "[9]; crizotinib 2 mg/kg IV", "result": "324* ms"}, {"measurement": "QT interval prolongation", "setting": "[9]; [19]", "result": 34, "unit": "ms"}, {"measurement": "RR interval prolongation", "setting": "[9]; [19]", "result": 67, "unit": "ms"}, {"measurement": "QRS Intervals", "setting": "[9]; crizotinib 3 mg/kg IV", "result": "56* ms"}, {"measurement": "QT Intervals", "setting": "[9]; crizotinib 3 mg/kg IV", "result": "218* ms"}, {"measurement": "QTc interval (Van der Water)", "setting": "[9]; crizotinib 3 mg/kg IV", "result": "273* ms"}, {"measurement": "RR Intervals", "setting": "[9]; crizotinib 3 mg/kg IV", "result": "367* ms"}, {"measurement": "PR interval prolongation", "setting": "[9]; [20]", "result": 23, "unit": "ms"}, {"measurement": "QRS interval prolongation", "setting": "[9]; [20]", "result": 13, "unit": "ms"}, {"measurement": "QT interval prolongation", "setting": "[9]; [20]", "result": 48, "unit": "ms"}, {"measurement": "QTc interval prolongation (Van der Water)", "setting": "[9]; [20]", "result": 38, "unit": "ms"}, {"measurement": "RR interval prolongation", "setting": "[9]; [20]", "result": 110, "unit": "ms"}, {"measurement": "RR Intervals", "setting": "[9]; crizotinib loading dose 1 mg/kg IV", "result": "294* ms"}]}, {"compound": "COc1cccc2c1C(=O)c1c(O)c3c(c(O)c1C2=O)C[C@@](O)(C(=O)CO)C[C@@H]3O[C@H]1C[C@H](N)[C@H](O)[C@H](C)O1", "note": "[Doxorubicin]", "values": [{"measurement": "QTc prolongation", "setting": "[10]; 30 uM", "result": 13, "unit": "%"}, {"measurement": "IC50", "setting": "[11]", "result": 4.78, "unit": "µM"}]}, {"compound": "CCCCc1oc2ccc(NS(C)(=O)=O)cc2c1C(=O)c1ccc(OCCCN(CCCC)CCCC)cc1", "note": "[Dronedarone]", "values": [{"measurement": "IC50", "setting": "[12]; [21]", "result": 0.07, "unit": "µM"}, {"measurement": "IC50", "setting": "[12]; read-out: hERG IC50, wild type hERG tails at −40 mV following activation at +30 mV", "result": 0.059, "unit": "µM"}]}, {"compound": "O=C(CCCN1CCC(O)(c2ccc(Cl)cc2)CC1)c1ccc(F)cc1", "note": "[Haloperidol]", "values": [{"measurement": "hERG blocker potency (in words)", "setting": "[12]", "result": "high potency hERG blocker"}]}, {"compound": "CS(=O)(=O)CCNCc1ccc(-c2ccc3ncnc(Nc4ccc(OCc5cccc(F)c5)c(Cl)c4)c3c2)o1", "note": "[Lapatinib]", "values": [{"measurement": "action potential duration (in words)", "setting": "[13]", "result": "prolong action potential duration"}]}, {"compound": "CCC(=O)C(CC(C)N(C)C)(c1ccccc1)c1ccccc1", "note": "(centres unmarked) [Methadone]", "values": [{"measurement": "IC50", "setting": "[12]; [21]", "result": 4.8, "unit": "µM"}]}, {"compound": "COc1c(N2C[C@@H]3CCCN[C@@H]3C2)c(F)cc2c(=O)c(C(=O)O)cn(C3CC3)c12", "note": "[Moxifloxacin]", "values": [{"measurement": "QTc prolongation", "setting": "[10]; 100 uM", "result": 22, "unit": "%"}]}, {"compound": "Cc1cn(-c2cc(NC(=O)c3ccc(C)c(Nc4nccc(-c5cccnc5)n4)c3)cc(C(F)(F)F)c2)cn1", "note": "[Nilotinib]", "values": [{"measurement": "steady state Cmax", "setting": "[3]; [22]", "result": 2161, "unit": "ng/mL"}, {"measurement": "Cmax", "setting": "[3]; [22]", "result": 4100, "unit": "nM"}, {"measurement": "steady state Cmax", "setting": "[3]; [23]", "result": 1754, "unit": "ng/mL"}, {"measurement": "Cmax", "setting": "[3]; [23]", "result": 3300, "unit": "nM"}, {"measurement": "IC50", "setting": "[4]", "result": "> 3", "unit": "µM"}, {"measurement": "effect on the QTc interval of in vitro rabbit hearts (in words)", "setting": "[14]", "result": "dose dependent prolongation of the QTc interval"}, {"measurement": "PR Intervals", "setting": "[15]; nilotinib 2 mg/kg IV", "result": 78, "unit": "ms"}, {"measurement": "QRS Intervals", "setting": "[15]; nilotinib 2 mg/kg IV", "result": "44* ms"}, {"measurement": "QT Intervals", "setting": "[15]; nilotinib 2 mg/kg IV", "result": "182* ms"}, {"measurement": "QTc Intervals (Van der Water)", "setting": "[15]; nilotinib 2 mg/kg IV", "result": "245* ms"}, {"measurement": "PR Intervals", "setting": "[15]; nilotinib 4 mg/kg IV", "result": 80, "unit": "ms"}, {"measurement": "QRS Intervals", "setting": "[15]; nilotinib 4 mg/kg IV", "result": "46* ms"}, {"measurement": "QT Intervals", "setting": "[15]; nilotinib 4 mg/kg IV", "result": "201* ms"}, {"measurement": "QTc Intervals (Van der Water)", "setting": "[15]; nilotinib 4 mg/kg IV", "result": "262* ms"}, {"measurement": "RR Intervals", "setting": "[15]; nilotinib 4 mg/kg IV", "result": 307, "unit": "ms"}, {"measurement": "QRS interval prolongation", "setting": "[15]; nilotinib 4 mg/kg, vs baseline", "result": 6, "unit": "ms"}, {"measurement": "QT interval prolongation", "setting": "[15]; nilotinib 4 mg/kg, vs baseline", "result": 41, "unit": "ms"}, {"measurement": "QTc interval prolongation", "setting": "[15]; nilotinib 4 mg/kg, vs baseline", "result": 36, "unit": "ms"}, {"measurement": "RR Intervals", "setting": "[15]; nilotinib loading dose 2 mg/kg IV", "result": 273, "unit": "ms"}]}, {"compound": "[K+]", "note": "[Potassium]", "values": [{"measurement": "reduction of the QTc interval", "setting": "[16]; plasma concentration raised by 1.5 mEq/L above baseline", "result": 24, "unit": "%"}]}, {"compound": "COc1ccc(CN(CCN(C)C)c2ccccn2)cc1", "note": "[Pyrilamine]", "values": [{"measurement": "hERG blocker potency (in words)", "setting": "[12]", "result": "low potency hERG blocker"}]}, {"compound": "CC(C)NCC(O)c1ccc(NS(C)(=O)=O)cc1", "note": "(centres unmarked) [Sotalol]", "values": [{"measurement": "incidence of QT prolongation", "setting": "[1]", "result": 2, "unit": "%"}]}, {"compound": "COc1cc2c(Nc3ccc(Br)cc3F)ncnc2cc1OCC1CCN(C)CC1", "note": "[Vandetanib]", "values": [{"measurement": "incidence of QT prolongation", "setting": "[1]", "result": "> 5", "unit": "%"}]}, {"compound": "CC(=O)Oc1ccc2c3c1O[C@H]1[C@@H](OC(C)=O)C=C[C@H]4[C@@H](C2)N(C)CC[C@@]341", "note": "[heroin]", "values": [{"measurement": "IC50", "setting": "[12]", "result": 427, "unit": "µM"}]}, {"compound": "CC(C)NCC(O)COc1cccc2ccccc12", "note": "(centres unmarked) [propranolol]", "values": [{"measurement": "decrease of risk of cardiac events", "setting": "[16]; LQT1", "result": 81, "unit": "%"}, {"measurement": "subjects still developing cardiac events on adequate treatment", "setting": "[16]; LQT1", "result": 10, "unit": "%"}, {"measurement": "subjects still developing cardiac events", "setting": "[16]; LQT2", "result": 23, "unit": "%"}, {"measurement": "decrease of cardiac event risk", "setting": "[16]; LQT2 subjects", "result": 59, "unit": "%"}, {"measurement": "subjects developing cardiac events on adequate treatment", "setting": "[16]; LQT3", "result": 32, "unit": "%"}]}, {"compound": "Arsenic trioxide", "values": [{"measurement": "hERG blocker potency (in words)", "setting": "[12]; literature", "result": "ineffective hERG blocker"}, {"measurement": "IC50", "setting": "[12]; [21]", "result": "> 300", "unit": "µM"}]}]}
